According to patent publication US6593319B1, “Fusidic acid derivatives” (Leo Pharmaceutical Products, Ltd. A/S, priority 2001, dated 2003):
Converted amounts (≈) assume the structure as drawn.

Assays:
[1] = tested on: Strep. epidermis A. ATCC12228; assay: MIC, agar diffusion method (European Pharmacopoeia 3rd Ed.); assay type: cell-based
Method: (§1) The antibacterial activity of some of these compounds relative to fusidic acid appears from Table 2 showing MIC values for compounds of the invention. The method used is recommended by the European Pharmacopoeia 3rd Ed. (1997) for testing the potency of antibiotics. It is an agar diffusion method where the same volume of the tested solution is added to cavities in agar. The inhibition zones are a function of the concentration of the fusidic acid analogue used. All assays are run with fusidic acid (1) as the reference substance. The results in Table 2 differ from those of Table 1 due to the different experimental methods used.

[2] = tested on: Strep. faecium Leo id. E119(P); assay: as above; assay type: cell-based; conditions: Penicillin resistant
Method: as §1

S. aureus Leoid CJ234(R) = assay: as above; assay type: cell-based; conditions: MRSA and Rifampicin resistant
Method: as §1

S. aureus ATCC6538P = assay: as above; assay type: cell-based
Method: as §1

[3] = tested on: Strep. sp. Gr.B Leo id. EF6; assay: as above; assay type: cell-based
Method: as §1

S. aureus ATCC2977 = assay: as above; assay type: cell-based
Method: as §1

S. aureus Leo id. CJ232 = assay: as above; assay type: cell-based; conditions: S. aureus Leo id. CJ232, MRSA
Method: as §1

[4] = tested on: Strep. faecalis ATCC10541; assay: as above; assay type: cell-based
Method: as §1

S. aureus/1 Aus-pe = assay: MIC, microtitter plates, liquid medium containing broth; assay type: cell-based; conditions: Staphylococcus aureus, FusS, MRSA, read-out: MIC values (concentrations in μg/ml required for 90% inhibition)
Method: (§2) In vitro investigations have evidenced high potency of compounds of the invention against several bacteria including staphylococci, streptococci, corynebacteriae and mycobacteriae. […] The biological tests are conducted on microtitter plates using liquid medium containing broth.

Streptococcus - gr.G/59 = assay: as above; assay type: cell-based; conditions: read-out: MIC values (concentrations in μg/ml required for 90% inhibition)
Method: as §2

S. aureus/ATCC 29213 = assay: as above; assay type: cell-based; conditions: Staphylococcus aureus, ATCC 29213 / MSSA, FusS, read-out: MIC values (concentrations in μg/ml required for 90% inhibition)
Method: as §2

[5] = tested on: E. faecalis/V583 P. Cour.; assay: as above; assay type: cell-based; conditions: Enterococcus faecalis, VanR, read-out: MIC values (concentrations in μg/ml required for 90% inhibition)
Method: as §2

N. gonorrhoea/C1 = assay: as above; assay type: cell-based; conditions: read-out: MIC values (concentrations in μg/ml required for 90% inhibition)
Method: as §2

N. meningitidis/K1 = assay: as above; assay type: cell-based; conditions: Neisseria meningitidis, read-out: MIC values (concentrations in μg/ml required for 90% inhibition)
Method: as §2

Streptococcus - gr.C/68 = assay: as above; assay type: cell-based; conditions: read-out: MIC values (concentrations in μg/ml required for 90% inhibition)
Method: as §2

[6] = tested on: Streptococcus - gr.A/67011; assay: as above; assay type: cell-based; conditions: read-out: MIC values (concentrations in μg/ml required for 90% inhibition)
Method: as §2

P. acnes/1060 = assay: as above; assay type: cell-based; conditions: Cutibacterium acnes, read-out: MIC values (concentrations in μg/ml required for 90% inhibition)
Method: as §2

Staphylococcus/379-2 = assay: as above; assay type: cell-based; conditions: Staphylococcus/379-2, coagulase negative, FusR, read-out: MIC values (concentrations in μg/ml required for 90% inhibition)
Method: as §2

M. tuberculosis/R 498 = assay: as above; assay type: cell-based; conditions: Mycobacterium tuberculosis, read-out: MIC values (concentrations in μg/ml required for 90% inhibition)
Method: as §2

S. aureus/54 USA-br = assay: as above; assay type: cell-based; conditions: Staphylococcus aureus, FusR, MSSA, read-out: MIC values (concentrations in μg/ml required for 90% inhibition)
Method: as §2

C. diphteria/62001 = assay: as above; assay type: cell-based; conditions: read-out: MIC values (concentrations in μg/ml required for 90% inhibition)
Method: as §2

Streptococcus - gr.B/61 = assay: as above; assay type: cell-based; conditions: read-out: MIC values (concentrations in μg/ml required for 90% inhibition)
Method: as §2

S. aureus/22 DK = assay: as above; assay type: cell-based; conditions: Staphylococcus aureus, FusS, MSSA, read-out: MIC values (concentrations in μg/ml required for 90% inhibition)
Method: as §2

Staphylococcus/291-2 = assay: as above; assay type: cell-based; conditions: Staphylococcus/291-2, coagulase negative, FusS, read-out: MIC values (concentrations in μg/ml required for 90% inhibition)
Method: as §2

[7] = Stability in ethanol solution (retained activity); assay type: physicochemical; conditions: solution in ethanol stored at 0° C. for 1 month
[8] = relative to fusidic acid; reduction of C-24/C-25 and C-17/C-20 double bonds; cited from earlier work
[9] = read-out: MIC values (concentrations in μg/ml required for 90% inhibition)
[10] = Staphylococcus aureus, read-out: MIC values (concentrations in μg/ml required for 90% inhibition)

Molecule: CCO[C@H]1C[C@@]2(C)[C@@H](C[C@@H](O)[C@H]3[C@@]4(C)CC[C@@H](O)[C@@H](C)[C@@H]4CC[C@@]32C)[C@H]1[C@H](CCC=C(C)C)C(=O)O [Compound 123, 16-Deacetoxy-16β-ethoxy-17(S),20(S)-dihydrofusidic Acid]
- MIC values (concentrations in μg/ml required for 90% inhibition) [1]: 0.5 µg/mL
- MIC values (concentrations in μg/ml required for 90% inhibition) [2]: 16 µg/mL
- MIC values (concentrations in μg/ml required for 90% inhibition) (S. aureus Leoid CJ234(R)): 0.007 µg/mL
- MIC values (concentrations in μg/ml required for 90% inhibition) (S. aureus ATCC6538P): 0.02 µg/mL
- MIC values (concentrations in μg/ml required for 90% inhibition) [3]: 16 µg/mL
- MIC values (concentrations in μg/ml required for 90% inhibition) (S. aureus ATCC2977): 0.02 µg/mL
- MIC values (concentrations in μg/ml required for 90% inhibition) (S. aureus Leo id. CJ232): 0.005 µg/mL
- MIC values (concentrations in μg/ml required for 90% inhibition) [4]: 16 µg/mL

Molecule: COCO[C@H]1C[C@@]2(C)[C@@H](C[C@@H](O)[C@H]3[C@@]4(C)CC[C@@H](O)[C@@H](C)[C@@H]4CC[C@@]32C)[C@H]1[C@H](CCC=C(C)C)C(=O)O [Compound 128, 16-Deacetoxy-16β-methoxymethoxy-17(S),20(S)-dihydrofusidic acid]
- MIC values (concentrations in μg/ml required for 90% inhibition) [1]: 0.5 µg/mL
- MIC values (concentrations in μg/ml required for 90% inhibition) [2]: 16 µg/mL
- MIC values (concentrations in μg/ml required for 90% inhibition) (S. aureus Leoid CJ234(R)): >64 µg/mL
- MIC values (concentrations in μg/ml required for 90% inhibition) (S. aureus ATCC6538P): 0.26 µg/mL
- MIC values (concentrations in μg/ml required for 90% inhibition) [3]: 16 µg/mL
- MIC values (concentrations in μg/ml required for 90% inhibition) (S. aureus ATCC2977): 0.19 µg/mL
- MIC values (concentrations in μg/ml required for 90% inhibition) (S. aureus Leo id. CJ232): >64 µg/mL
- MIC values (concentrations in μg/ml required for 90% inhibition) [4]: 16 µg/mL

Molecule: CC(=O)O[C@H]1C[C@@]2(C)[C@@H](C[C@@H](O)[C@H]3[C@@]4(C)CC[C@@H](O)[C@@H](C)[C@@H]4CC[C@@]32C)/C1=C(\CCC=C(C)C)C(=O)O [Fusidic acid (1), Fusidic acid]
- MIC (S. aureus/1 Aus-pe): 1 µg/mL (≈ 1.94 µM)
- MIC (Streptococcus - gr.G/59): 4 µg/mL (≈ 7.74 µM)
- MIC (S. aureus/ATCC 29213): 1 µg/mL (≈ 1.94 µM)
- MIC [5]: 16 µg/mL (≈ 31 µM)
- MIC (N. gonorrhoea/C1): 1 µg/mL (≈ 1.94 µM)
- MIC (N. meningitidis/K1): 0.25 µg/mL (≈ 0.484 µM)
- MIC (Streptococcus - gr.C/68): 2 µg/mL (≈ 3.87 µM)
- MIC [6]: 16 µg/mL (≈ 31 µM)
- MIC (P. acnes/1060): 0.125 µg/mL (≈ 0.242 µM)
- MIC (Staphylococcus/379-2): 64 µg/mL (≈ 124 µM)
- MIC (M. tuberculosis/R 498): > 16 µg/mL
- MIC (S. aureus/54 USA-br): 8 µg/mL (≈ 15.5 µM)
- MIC (C. diphteria/62001): 0.063 µg/mL (≈ 0.122 µM)
- MIC (Streptococcus - gr.B/61): 32 µg/mL (≈ 61.9 µM)
- MIC (S. aureus/22 DK): 0.5 µg/mL (≈ 0.968 µM)
- MIC (Staphylococcus/291-2): 1 µg/mL (≈ 1.94 µM)
- MIC [1, 9]: 0.01 µg/mL (≈ 0.0194 µM)
- MIC ([2]; Enterococcus faecium, read-out: MIC values (concentrations in μg/ml required for 90% inhibition)): 2.7 µg/mL (≈ 5.23 µM)
- MIC (S. aureus Leoid CJ234(R); [10]): 0.01 µg/mL (≈ 0.0194 µM)
- MIC (S. aureus ATCC6538P; [10]): 0.013 µg/mL (≈ 0.0252 µM)
- MIC [3, 9]: 4.9 µg/mL (≈ 9.48 µM)
- MIC (S. aureus ATCC2977; [10]): 0.01 µg/mL (≈ 0.0194 µM)
- MIC (S. aureus Leo id. CJ232; [10]): 0.012 µg/mL (≈ 0.0232 µM)
- MIC ([4]; Enterococcus faecalis, read-out: MIC values (concentrations in μg/ml required for 90% inhibition)): 4.9 µg/mL (≈ 9.48 µM)
- retained initial activity [7]: about 70%

Molecule: tetrahydrofusidic acid
- antibacterial activity [8]: almost complete loss of activity
